From BindingDB's records for doi:10.1016/j.ejmech.2017.06.016 (University of Science and Technology of China, 2017)

Biological target: T1, Cytoplasmic tyrosine-protein kinase BMX (Homo sapiens, UniProt P51813)
T1 sequence (P51813 whole entry): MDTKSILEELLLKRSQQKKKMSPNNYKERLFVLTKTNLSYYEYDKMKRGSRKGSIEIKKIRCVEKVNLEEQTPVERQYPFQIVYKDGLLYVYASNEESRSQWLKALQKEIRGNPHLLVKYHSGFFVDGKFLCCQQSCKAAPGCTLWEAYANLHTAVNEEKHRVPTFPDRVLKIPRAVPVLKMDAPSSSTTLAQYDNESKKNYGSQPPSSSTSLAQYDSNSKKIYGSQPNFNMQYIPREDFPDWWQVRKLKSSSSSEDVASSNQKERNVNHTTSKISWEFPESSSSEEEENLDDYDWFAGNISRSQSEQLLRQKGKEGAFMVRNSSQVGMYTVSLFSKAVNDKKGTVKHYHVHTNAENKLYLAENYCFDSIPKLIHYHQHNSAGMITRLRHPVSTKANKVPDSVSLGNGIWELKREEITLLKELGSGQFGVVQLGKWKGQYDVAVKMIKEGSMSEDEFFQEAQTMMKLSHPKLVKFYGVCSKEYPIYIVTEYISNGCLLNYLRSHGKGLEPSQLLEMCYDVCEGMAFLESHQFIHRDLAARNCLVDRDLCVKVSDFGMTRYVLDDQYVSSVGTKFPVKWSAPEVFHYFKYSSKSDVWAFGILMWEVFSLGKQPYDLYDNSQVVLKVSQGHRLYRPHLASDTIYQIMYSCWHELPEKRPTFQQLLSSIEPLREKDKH
Test: ChEBML_1715921
Method: Inhibition of recombinant full length His-tagged human BMX expressed in baculovirus expression system using poly (4:1 Glu, Tyr) as substrate preincubated for 1 hr followed by substrate addition measured after 1 hr by ADP-glo assay

For `C=CC(=O)Nc1cccc(-n2c(=O)ccc3cnc4ccc(-c5ccc(N)nc5)cc4c32)c1` [QL-X-132], the IC50 was 16 nM.
`C=CC(=O)Nc1cccc(-n2c(=O)ccc3cnc4ccc(-c5cn[nH]c5)cc4c32)c1` [QL-XI-13] gave an IC50 of 11 nM.
`C=CC(=O)Nc1cc(-n2c(=O)ccc3cnc4ccc(-c5ccsc5)cc4c32)ccc1C` [QL-XI-75] was tested, and the IC50 was 20 nM.
`C=CC(=O)N1CCc2ccc(-n3c(=O)ccc4cnc5ccc(-c6ccc(N)nc6)cc5c43)cc21` [QL-XII-45] gave an IC50 of 13 nM.
For `C=CC(=O)Nc1cc(-n2c(=O)ccc3cnc4ccc(-c5cnc6ccccc6c5)cc4c32)ccc1C` [QL-XII-54], the IC50 was 19 nM.
`C=CC(=O)Nc1cc(-n2c(=O)ccc3cnc4ccc(-c5ccc6c(c5)OCCO6)cc4c32)ccc1C` [QL-XII-115] showed an IC50 of 13 nM.
